Experimental data: article PMC10708540, “Determination and Kinetic Characterization of a New Potential Inhibitor for AmsI Protein Tyrosine Phosphatase from the Apple Pathogen Erwinia amylovora” (Molecules, 2023)

How the values were obtained:
[1] = biological target: T1, EaAmsI (AmsI, Low Molecular Weight Protein Tyrosine Phosphatase) (Erwinia amylovora, UniProt Q46630); experiment: pNPP hydrolysis at […] nm, Michaelis-Menten global fit with competitive inhibition model; type: biochemical
T1 construct: recombinant EaAmsI (gene from strain Ea273, pETM-11 vector)

[2] = test system: O=[N+]([O-])c1ccc(OP(=O)(O)O)cc1; experiment: purified protein
[3] = biological target: T1, EaAmsI (AmsI, Low Molecular Weight Protein Tyrosine Phosphatase); experiment: pNPP hydrolysis, dose-response IC50; type: biochemical

T1 sequence (Q46630 whole entry): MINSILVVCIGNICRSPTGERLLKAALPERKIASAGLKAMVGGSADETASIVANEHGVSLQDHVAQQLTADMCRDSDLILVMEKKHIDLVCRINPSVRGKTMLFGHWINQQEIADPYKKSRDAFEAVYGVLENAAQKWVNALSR

Q: For `CCCCCCCO[C@@H]1O[C@H](CO)[C@@H](O)[C@H](O)[C@H]1O` [N7G, (2R,3R,4S,5S,6R)-2-(heptyloxy)-6-(hydroxymethyl)oxane-3,4,5-triol], which Ki [1] is on record?
A: The Ki was 0.0078 ± 0.0006 mM.

Q: “EaAmsI (AmsI, Low Molecular Weight Protein Tyrosine Phosphatase) (Erwinia amylovora)” was tested. Which Km [2] did it give?
A: Its Km is 15.1 ± 1.3 mM.

Q: How did the IC50 [3] turn out when `CCCCCCCCO[C@@H]1O[C@H](CO)[C@@H](O)[C@H](O)[C@H]1O` [N8G, (2R,3S,4S,5R,6R)-2-(hydroxymethyl)-6-(octyloxy)oxane-3,4,5-triol] was run?
A: Its IC50 is 9.5 ± 1.3 mM.
